The values that follow come from PMC11407620, “Repurposing auranofin and meclofenamic acid as energy-metabolism inhibitors and anti-cancer drugs” (PLOS ONE, 2024).

The test system of data set [1] is HeLa cells. Kind of data set: OxPhos flux (oligomycin-sensitive respiration) in intact cells. The class given is cell-based, human. The following applies: 24 h. Here is the method: (§1) For oxidative phosphorylation (OxPhos) flux, cells (2–5 mg protein/mL) were incubated at 37°C in air saturated KR medium plus 5 mM glucose. To distinguish the oxygen consumption associated to OxPhos, the cells were incubated with 5 μM oligomycin (Sigma-Aldrich, MO, USA), a potent, specific, and permeable inhibitor of the mitochondrial ATP synthase. The net OxPhos rate was determined by using a Clark type electrode, as previously described and by using a high-resolution respirometer (Oroboros Instruments, Innsbruck, Austria) at 37°C. The contribution of OxPhos and glycolysis to the cellular ATP supply was determined, respectively, from the net OxPhos rate (oligomycin-sensitive respiration) multiplied by the ATP/O or P»/O2 ratio that corresponds to 2.5 or 5, and from the rate of lactate production, assuming a stoichiometry of 1 mol of ATP produced per 1 mol of lactate produced.

Data set [2] relates to MDA-MB-231 cells. The description is as above. The class given is cell-based, human. The note with it: 24 h. How it is done:
as §1

Data set [3] has as its system H9C2 mouse cardiomyocytes. The data set can be described thus: Cell proliferation, 24 h drug exposure (non cancer cells). The format is cell-based. The following applies: read-out: IC50 for proliferation cell rate. Here is the method: (§2) All metastatic (breast MDA-MB231, MDA-MB468, cervix HeLa, prostate PC3, colorectal HCT116, COLO205, glioblastoma U373), low-metastatic (breast MCF-7) cancer and non-cancer (fibroblast 3T3, cardiomyocytes H9C2) cell lines (American Type Culture Collection, Rockville, MD, USA) used in this study were cultured in Petri dishes in 20 mL of Dulbecco’s Modified Eagle’s Medium (DMEM, Sigma, MO, USA) supplemented with 10% fetal bovine serum (Biowest, Mexico) and 10,000 U penicillin/streptomycin (Sigma-Aldrich, MO, USA). […] For growth and maintenance, cells were incubated in 5% CO2/95% air at 37°C and kept until 80–90% of confluence was reached. Then, cells were harvested, washed by centrifugation and resuspended in Krebs-Ringer buffer (KR, 125 mM NaCl, 5 mM KCl, 25 mM Hepes, 1 mM MgCl2, 1 mM KH2PO4, 1.4 mM CaCl2, pH 7.4) for further use. For experimentation, cancer cells (3–5 x 10^6 cells) were cultured in DMEM (with 25 mM glucose) for 24 h in the absence of drugs. Afterwards, old-medium was replaced with fresh DMEM medium (with 25 mM glucose) in the absence (control, non-treated cells) or in the presence of logarithmic concentrations of Aur and MA for 24 h more, under the same culture conditions described above. Viability of cultured cells was determined by the trypan blue exclusion assay. The protein concentration was determined by the Lowry method.
(§3) For cell proliferation in the presence of drugs, cancer cells (20 x 10^3 cells/well) were grown in 96-well plates containing DMEM (Sigma-Aldrich) plus 10% bovine fetal serum for 24 h. Afterwards, Aur or MA (0.01, 0.1, 10 and 100 μM) were added to the cell cultures and incubated for additional 24 h. The effect of these drugs on cell proliferation was determined in 96-well plates by the MTT (3-[4,5-dimethyl-thiazol-2-yl]-2,5-diphenyltetrazolium bromide) assay. The viability of cancer cells was > 95% after treatment with drugs.

The test system of a further data set is 3T3 mouse fibroblasts. Described as above. The note with it: 3T3 mouse fibroblasts (non cancer), read-out: IC50 for proliferation cell rate. The class given is cell-based. Here is the method:
as §2, §3

A further data set deals with Cervix HeLa cells. Kind of data set: Cell proliferation, 24 h drug exposure. The class given is cell-based, human. The following applies: for effect on proliferation after shorter exposure: HeLa cells, 12 h exposure; for IC50: Cervix HeLa, 24 h, read-out: IC50 for proliferation cell rate; for TI ratio (3T3/ cancer cells): IC50 3T3 / IC50 HeLa; for TI ratio (H9C2/cancer cells): IC50 H9C2 / IC50 HeLa. Here is the method:
as §2
For cell proliferation in the presence of drugs, cancer cells (20 x 10^3 cells/well) were grown in 96-well plates containing DMEM (Sigma-Aldrich) plus 10% bovine fetal serum for 24 h. […] The effect of these drugs on cell proliferation was determined in 96-well plates by the MTT (3-[4,5-dimethyl-thiazol-2-yl]-2,5-diphenyltetrazolium bromide) assay. The viability of cancer cells was > 95% after treatment with drugs.

For another data set, the system named is Colorectal HCT116 cells. The data set can be described thus: Cell proliferation, 24 h drug exposure. The format is cell-based, human. The following applies: for IC50: Colorectal HCT116, 24 h, read-out: IC50 for proliferation cell rate; for TI ratio (3T3/ cancer cells): IC50 3T3 / IC50 HCT-116; for TI ratio (H9C2/cancer cells): IC50 H9C2 / IC50 HCT-116. How it is done:
as §2, §3

The next data set relates to Breast MDA-MB-231 cells. The data set can be described thus: Cell proliferation, 24 h drug exposure. The class given is cell-based, human. The following applies: for IC50: Breast MDA-MB-231, 24 h, read-out: IC50 for proliferation cell rate; for TI ratio (3T3/ cancer cells): IC50 3T3 / IC50 MDA-MB-231; for TI ratio (H9C2/cancer cells): IC50 H9C2 / IC50 MDA-MB-231. How it is done: as §2, §3

Another data set relates to Prostate PC3 cells. Kind of data set: Cell proliferation, 24 h drug exposure. The format is cell-based, human. The note with it: for IC50: Prostate PC3, 24 h, read-out: IC50 for proliferation cell rate; for TI ratio (3T3/ cancer cells): IC50 3T3 / IC50 PC3; for TI ratio (H9C2/cancer cells): IC50 H9C2 / IC50 PC3. Here is the method: as §2, §3
In another data set the test system is Breast MCF-7 cells. The data set can be described thus: Cell proliferation, 24 h drug exposure. The format is cell-based, human. The note with it: for IC50: Breast MCF-7 (low metastatic), 24 h, read-out: IC50 for proliferation cell rate; for TI ratio (3T3/ cancer cells): IC50 3T3 / IC50 MCF-7; for TI ratio (H9C2/cancer cells): IC50 H9C2 / IC50 MCF-7. Here is the method:
as §2, §3

On the set-up of data set [4]: method as in doi:10.1016/j.ccr.2017.02.015, PMID 36770718. The following applies: cited from earlier work.
Data set [5] concerns ovarian cancer A2780 cells. Also on record: method as in PMID 35358852. The following applies: cited from earlier work.
The test system of data set [6] is HeLa cells. The data set can be described thus: Glycolysis flux (lactate production) in intact cells. The class given is cell-based, human. How it is done:
(§4) For glycolysis flux, cells (3 mg protein/mL) were incubated in KR buffer. Glycolysis was started by adding 5 mM external glucose (Sigma-Aldrich, MO, USA), and cellular samples were withdrawn after 0 and 10 min of incubation at 37°C under smooth orbital shaking. At the indicated times, the cells were rapidly mixed with 3% (w/v) ice-cold perchloric acid and centrifuged. The supernatants were neutralized with 1N KOH/100mM Tris. To rule out lactate production by glutaminolysis, cells were also incubated with 10 mM 2-deoxyglucose (Sigma-Aldrich, MO, USA). Lactate was determined by a standard method with lactate dehydrogenase (Roche, Mannheim, Germany) following the NADH formation at 340 nm.

Data set [7] relates to MDA-MB-231 cells. The description is as above. The format is cell-based, human. The following applies: +Aur 0.8 μM, 24 h. Here is the method: as §4

Structures are written as SMILES. Like-named read-outs stand apart in the source and are kept apart here. Some results are limits rather than exact numbers.

As to `Cc1ccc(Cl)c(Nc2ccccc2C(=O)O)c1Cl` [MA, Meclofenamic acid], the values for the OxPhos flux in the data set on HeLa cells [1] (+MA 6 μM) and in the data set on MDA-MB-231 cells [2] (+MA 50 μM) were 1.1 ± 0.3 nmol O2 min^-1 mg protein^-1 and 3.1 ± 2 nmol O2 min^-1 mg protein^-1, respectively. Further, the IC50 in data set [3] was over 100 µM; in the data set on 3T3 mouse fibroblasts (Fibroblast), over 100 µM; with Cervix HeLa cells (Homo sapiens), 6 ± 3 µM; in the data set with Colorectal HCT116 cells (Homo sapiens, HCT-116) it was over 100 µM; in the data set on Breast MDA-MB-231 cells (Homo sapiens), 51 ± 5 µM; with Prostate PC3 cells (Homo sapiens, PC-3), 6 ± 3 µM. In the data set on Breast MCF-7 cells (Homo sapiens, MCF7), the IC50 is over 100 µM. In addition, the “effect on proliferation after shorter exposure” value in the data set on Cervix HeLa cells was under 15%. For the same compound, the “TI ratio (3T3/ cancer cells)” value is recorded as 17 in the data set with Cervix HeLa cells; 1 in the data set with Colorectal HCT116 cells; 2 with Breast MDA-MB-231 cells; 17 in the data set on Prostate PC3 cells; 1 in the data set on Breast MCF-7 cells. In addition, the “TI ratio (H9C2/cancer cells)” value with Cervix HeLa cells is given as 17; with Colorectal HCT116 cells it was 1; with Breast MDA-MB-231 cells, 2; with Prostate PC3 cells, 17; in the data set on Breast MCF-7 cells it was 1.

With `CC(=O)OC[C@H]1O[C@@H]([S-])[C@H](OC(C)=O)[C@@H](OC(C)=O)[C@@H]1OC(C)=O.CCP(CC)CC.[Au+]` [Aur, [1-(thio-κS)-β-D-glucopyranose-2,3,4,6-tetraacetyl] (triethylphosphine)-gold], in [4], the “stability in aqueous media” value is “unstable”. In addition, the “inhibition of cancer cell total oxygen consumption” value in data set [5] was “around 25%”. Moreover, the figures for the OxPhos flux in the data set with HeLa cells [1] (+Aur 1.7 μM) and in the data set with MDA-MB-231 cells [2] (+Aur 0.8 μM) were 2.6 ± 0.5 nmol O2 min^-1 mg protein^-1 and 2.5 ± 0.5 nmol O2 min^-1 mg protein^-1, respectively. The Glycolysis flux in the data set with HeLa cells [6] (+Aur 1.7 μM, 24 h) is on record as 4 ± 3 (3) nmol lactate min^-1 mg protein^-1; in the data set on MDA-MB-231 cells [7] it was 3 ± 2 (3) nmol lactate min^-1 mg protein^-1. This compound also registered a glycolytic flux inhibition in the data set with HeLa cells [6] (Aur alone (Table 2)) of 75%. In addition, the IC50 is 78 ± 15 µM in [3]; 42 ± 17 µM with 3T3 mouse fibroblasts; 1.7 ± 0.4 µM with Cervix HeLa cells; 3 ± 1 µM with Colorectal HCT116 cells; 0.8 ± 0.2 µM in the data set on Breast MDA-MB-231 cells; 6.5 ± 3.5 µM with Prostate PC3 cells. The IC50 in the data set with Breast MCF-7 cells worked out at 5 ± 0.6 µM. For the same compound, the “effect on proliferation after shorter exposure” value with Cervix HeLa cells was under 15%. The “TI ratio (3T3/ cancer cells)” value stood at 25 with Cervix HeLa cells; 14 in the data set with Colorectal HCT116 cells; 52 in the data set on Breast MDA-MB-231 cells; 6 in the data set with Prostate PC3 cells; 8 in the data set on Breast MCF-7 cells. The “TI ratio (H9C2/cancer cells)” value worked out at 46 in the data set with Cervix HeLa cells; 26 in the data set on Colorectal HCT116 cells; 97 with Breast MDA-MB-231 cells; 12 in the data set on Prostate PC3 cells; 15 in the data set with Breast MCF-7 cells.
